We go through one compound from paper doi:10.1101/435867v2 (biorxiv, 2018).

Test [1] has as its target T1, GLO1 (Homo sapiens, UniProt Q04760).
T1 sequence (Q04760 2-184): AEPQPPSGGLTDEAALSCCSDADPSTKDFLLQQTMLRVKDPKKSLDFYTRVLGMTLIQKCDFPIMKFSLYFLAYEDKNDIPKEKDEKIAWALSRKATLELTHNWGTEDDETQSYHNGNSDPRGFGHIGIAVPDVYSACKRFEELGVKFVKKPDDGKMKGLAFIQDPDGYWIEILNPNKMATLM
Briefly: fluorescence spectroscopy. The format is binding.

For test [2], the target named is T2, GLO1 in PC12 cells (Rattus norvegicus, UniProt Q6P7Q4).
T2 sequence (Q6P7Q4 2-184): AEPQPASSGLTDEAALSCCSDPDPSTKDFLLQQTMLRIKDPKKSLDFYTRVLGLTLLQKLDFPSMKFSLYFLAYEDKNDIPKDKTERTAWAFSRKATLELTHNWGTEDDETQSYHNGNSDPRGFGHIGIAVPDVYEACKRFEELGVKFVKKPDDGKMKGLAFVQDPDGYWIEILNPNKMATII
The test can be described thus: cellular thermal shift assay. Type of test: cell-based. Conditions: half-maximal thermal stabilization.

In test [3] the target is T1, GLO1. The test can be described thus: fluorescence spectroscopy. Type of test: binding. Particulars: 298 K, 5 μM GLO1.

Compound `O=c1cc(-c2ccc(O)c(O)c2)oc2cc(O)cc(O)c12` [luteolin] registered a Kd in test [1] of 47.2 µM. Besides, the EC50 in test [2] was 45.2 µM. In addition, the Ka in test [3] turned out to be 21200 L/mol.

Broadly, the Kd is a measure of binding affinity in units of concentration. Read a low Kd as tighter binding. A word on the EC50: it is the concentration giving half of the maximal effect.
